Data reported in ChEMBL document CHEMBL1130451, “Synthesis and cytotoxicity of amino analogues of the potent DNA alkylating agent seco-CBI-TMI” (Bioorg Med Chem Lett, 1997).

Test: Concentration required for 50% inhibition of growth of AA8 cells following 4 hr drug exposure
Type: functional, cell-based
Details: Cricetulus griseus, CHO-AA8, 4 h

Point of comparison: `CNc1ccc2c(c1)N(C(=O)c1cc3cc(OC)c(OC)c(OC)c3[nH]1)CC2CCl` (stereo not drawn), IC50 220 nM. Against it:
- COc1cc2cc(C(=O)N3CC(CCl)c4ccc([N+](=O)[O-])cc43)[nH]c2c(OC)c1OC (stereo not drawn) — higher, > 40000 nM
- CNc1cc2c(c3ccccc13)C(CCl)CN2C(=O)c1cc2cc(OC)c(OC)c(OC)c2[nH]1 (stereo not drawn) — 1300-fold lower, 0.17 nM
- COc1cc2cc(C(=O)N3CC(CCl)c4ccc(N(C)C)cc43)[nH]c2c(OC)c1OC (stereo not drawn) — within 1.5-fold, 280 nM
- COc1cc2cc(C(=O)N3CC(CCl)c4c3cc(N(C)C)c3ccccc43)[nH]c2c(OC)c1OC (stereo not drawn) — 39-fold lower, 5.6 nM
- COc1cc2cc(C(=O)N3CC(CCl)c4ccc(N)cc43)[nH]c2c(OC)c1OC (stereo not drawn) — within 1.5-fold, 320 nM
- COc1cc2cc(C(=O)N3CC(CCl)c4c3cc([N+](=O)[O-])c3ccccc43)[nH]c2c(OC)c1OC (stereo not drawn) — 7.3-fold higher, 1600 nM
- COc1cc2cc(C(=O)N3CC(CCl)c4c3cc(N)c3ccccc43)[nH]c2c(OC)c1OC (stereo not drawn) — 510-fold lower, 0.43 nM
